Patent US20190343908A1, “Therapeutic Combination for the Treatment of Cancer” (Nerium Biotechnology Inc., priority 2011, published 2019)
“And” between values parts separate entries of the source, which are not always exact repeats. Equal entries are not always repeated.

Experiments:
[1] = system: HCT-15 (colorectal cancer); experiment: Sulforhodamine B viability assay, HCT-15; assay type: cell-based, human; set-up: key to SRB Average: absorbance (optical density) at 570 nm, second wavelength subtracted; conditions: for SRB Average 24 h / SRB Average 48 h / SRB Average 72 h: HCT-15, Run 1
From the text: (§1) Three different viability assays were chosen to complement each other and yielded results dependent on concentration and cell line: the Methyl Tetrazolium dye assay, the Sulforhodamine B fluorescent dye assay, and the Crystal Violet dye assay.
(§2) The Sulforhodamine B and Crystal Violet assays provide information about protein and were used to complement the Methyl-Tetrazolium dye assay. […] It is used for the quantification of cellular proteins of cultured cells. The assay using Crystal Violet, a dye that binds electrostatically to proteins and stains DNA, provides a reliable, simple assay for measuring viability of cells.
(§3) The Methyl Tetrazolium, Sulforhodamine B, and Crystal Violet assays were used to assess cell viabilities. The incubation times were 24 hours, 48 hours, and 72 hours. The Nerium oleander extract Anvirzel™ (a hot water extract of oleander obtained from Salud Integral, Honduras) was tested in concentrations ranging from 0.01 ng/mL to 10 ng/mL.
(§4) Cells were detached by trypsinization (Trypsin-0.25% EDTA, Invitrogen, 25200-072) during the logarithmic phase of culture growth and plated in 96-well plates (18.000 cells/well) (Corning, Costar 359) in a final volume of 200 μl of medium per well. […] The absorbance was measured after 24 hours, 48 hours, and 72 hours of incubation.
(§5) For the Sulforhodamine B assay, 96-well plates were fixed by 10% trichloroacetic acid (Fluka, 91228) and were incubated at 4° C. for 1 hour. Afterwards, plates were rinsed with water and cells were stained with 0.4% Sulforhodamine B (Sigma, 341738), dissolved in 1% acetic acid (Carlo Ebra, 401422) for 15 minutes at room temperature (RT). The unbound stain was washed twice with 1% acetic acid. Finally, 10 mM Tris Buffer pH 10.5 (Sigma, T6791) was added to dissolve the dye.
(§6) The optical density of each plate was measured on a μQuant spectrophotometer and the data were analyzed with Gen5 software (μQuant Biomolecular Spectrophotometer MQX200 and Gen5™ Microplate Data Collection & Analysis software, BioTek® Instruments. Inc, April 2008). Absorbance was measured at 570 nm for all assays and a second wavelength was measured in order to subtract noise. For the Methyl-Tetrazolium assay this second wavelength was 630 nm and for the Sulforhodamine B and Crystal Violet assays it was 690 nm.

[2] = system: A375 melanoma cancer cell line; experiment: Sulforhodamine B viability assay, A375; assay type: cell-based, human; conditions: for ABSORBANCE: 0.1 μg/mL cisplatin; for Average absorbance, SRB 24 h / Average absorbance, SRB 48 h / Average absorbance, SRB 72 h: A375 Run 1
From the text: as §1, §2, §3, §4, §5, §6

[3] = system: 22Rv1 (human prostate cancer); experiment: Sulforhodamine B (SRB) viability assay, 22Rv1; assay type: cell-based
From the text: as §1, §2, §3, §4, §5, §6

N.N.[Cl][Pt][Cl] [cisplatin]
SRB Average 24 h ([1]; 0.1 μg/ml CDDP): 2.592 | SRB Average 48 h ([1]; 0.1 μg/ml CDDP): 2.747 | SRB Average 72 h ([1]; 0.1 μg/ml CDDP): 2.792 | SRB Average 24 h ([1]; 1 μg/ml CDDP): 1.974 | SRB Average 48 h ([1]; 1 μg/ml CDDP): 2.397 | SRB Average 72 h ([1]; 1 μg/ml CDDP): 1.697 | SRB Average 24 h ([1]; 10 μg/ml CDDP): 1.657 | SRB Average 48 h ([1]; 10 μg/ml CDDP): 2.449 | SRB Average 72 h ([1]; 10 μg/ml CDDP): 1.71 | SRB Average 24 h ([1]; 100 μg/ml CDDP): 1.854 | SRB Average 48 h ([1]; 100 μg/ml CDDP): 1.937 | SRB Average 72 h ([1]; 100 μg/ml CDDP): 1.634 | SRB Average ([1]; Run 2, 24 h, 0.1 μg/ml CDDP): 2.271 | SRB Average ([1]; Run 2, 24 h, 1 μg/ml CDDP): 1.762 | SRB Average ([1]; Run 2, 24 h, 10 μg/ml CDDP): 2.09 | SRB Average ([1]; Run 2, 24 h, 100 μg/ml CDDP): 1.78 | SRB Average ([1]; Run 2, 48 h, 0.1 μg/ml CDDP): 2.54 | SRB Average ([1]; Run 2, 48 h, 1 μg/ml CDDP): 2.198 | SRB Average ([1]; Run 2, 48 h, 10 μg/ml CDDP): 2.456 | SRB Average ([1]; Run 2, 48 h, 100 μg/ml CDDP): 2.169 | SRB Average ([1]; Run 2, 72 h, 0.1 μg/ml CDDP): 2.797 | SRB Average ([1]; Run 2, 72 h, 1 μg/ml CDDP): 2.068 | SRB Average ([1]; Run 2, 72 h, 10 μg/ml CDDP): 1.85 | SRB Average ([1]; Run 2, 72 h, 100 μg/ml CDDP): 1.585 | SRB Average ([1]; Run 3, 24 h, 0.1 μg/ml CDDP): 2.578 | SRB Average ([1]; Run 3, 24 h, 1 μg/ml CDDP): 1.713 | SRB Average ([1]; Run 3, 24 h, 10 μg/ml CDDP): 1.941 | SRB Average ([1]; Run 3, 24 h, 100 μg/ml CDDP): 1.254 | SRB Average ([1]; Run 3, 48 h, 0.1 μg/ml CDDP): 2.768 | SRB Average ([1]; Run 3, 48 h, 1 μg/ml CDDP): 1.845 | SRB Average ([1]; Run 3, 48 h, 10 μg/ml CDDP): 2.104 | SRB Average ([1]; Run 3, 48 h, 100 μg/ml CDDP): 1.77 | SRB Average ([1]; Run 3, 72 h, 0.1 μg/ml CDDP): 2.96 | SRB Average ([1]; Run 3, 72 h, 1 μg/ml CDDP): 1.752 | SRB Average ([1]; Run 3, 72 h, 10 μg/ml CDDP): 2.063 | SRB Average ([1]; Run 3, 72 h, 100 μg/ml CDDP): 1.935 | ABSORBANCE ([2]; A375, 48 h): 2.421 | ABSORBANCE ([2]; A375, 72 h): 2.487 | Average absorbance, SRB 24 h ([2]; 0.1 μg/ml CDDP): 2.072 | Average absorbance, SRB 48 h ([2]; 0.1 μg/ml CDDP): 2.421 | Average absorbance, SRB 72 h ([2]; 0.1 μg/ml CDDP): 2.487 | Average absorbance, SRB 24 h ([2]; 1 μg/ml CDDP): 1.579 | Average absorbance, SRB 48 h ([2]; 1 μg/ml CDDP): 1.987 | Average absorbance, SRB 72 h ([2]; 1 μg/ml CDDP): 2.256 | Average absorbance, SRB 24 h ([2]; 10 μg/ml CDDP): 1.117 | Average absorbance, SRB 48 h ([2]; 10 μg/ml CDDP): 1.678 | Average absorbance, SRB 72 h ([2]; 10 μg/ml CDDP): 1.913 | Average absorbance, SRB 24 h ([2]; 100 μg/ml CDDP): 1.283 | Average absorbance, SRB 48 h ([2]; 100 μg/ml CDDP): 1.782 | Average absorbance, SRB 72 h ([2]; 100 μg/ml CDDP): 1.319 | Average absorbance SRB ([2]; A375 Run 2, 24 h, 0.1 μg/ml CDDP): 2.189 | Average absorbance SRB ([2]; A375 Run 2, 24 h, 1 μg/ml CDDP): 1.916 | Average absorbance SRB ([2]; A375 Run 2, 24 h, 10 μg/ml CDDP): 1.827 | Average absorbance SRB ([2]; A375 Run 2, 24 h, 100 μg/ml CDDP): 1.939 | Average absorbance SRB ([2]; A375 Run 2, 48 h, 0.1 μg/ml CDDP): 2.571 | Average absorbance SRB ([2]; A375 Run 2, 48 h, 1 μg/ml CDDP): 1.366 | Average absorbance SRB ([2]; A375 Run 2, 48 h, 10 μg/ml CDDP): 1.265 | Average absorbance SRB ([2]; A375 Run 2, 48 h, 100 μg/ml CDDP): 1.293 | Average absorbance SRB ([2]; A375 Run 2, 72 h, 0.1 μg/ml CDDP): 2.634 | Average absorbance SRB ([2]; A375 Run 2, 72 h, 1 μg/ml CDDP): 2.085 | Average absorbance SRB ([2]; A375 Run 2, 72 h, 10 μg/ml CDDP): 1.617 | Average absorbance SRB ([2]; A375 Run 2, 72 h, 100 μg/ml CDDP): 1.491 | Average absorbance SRB ([2]; A375 Run 3, 24 h, 0.1 μg/ml CDDP): 1.597 | Average absorbance SRB ([2]; A375 Run 3, 24 h, 1 μg/ml CDDP): 1.126 | Average absorbance SRB ([2]; A375 Run 3, 24 h, 10 μg/ml CDDP): 1.294 | Average absorbance SRB ([2]; A375 Run 3, 24 h, 100 μg/ml CDDP): 0.982 | Average absorbance SRB ([2]; A375 Run 3, 48 h, 0.1 μg/ml CDDP): 2.175 | Average absorbance SRB ([2]; A375 Run 3, 48 h, 1 μg/ml CDDP): 1.83 | Average absorbance SRB ([2]; A375 Run 3, 48 h, 10 μg/ml CDDP): 1.586 | Average absorbance SRB ([2]; A375 Run 3, 48 h, 100 μg/ml CDDP): 1.572 | Average absorbance SRB ([2]; A375 Run 3, 72 h, 0.1 μg/ml CDDP): 2.184 | Average absorbance SRB ([2]; A375 Run 3, 72 h, 1 μg/ml CDDP): 1.491 | Average absorbance SRB ([2]; A375 Run 3, 72 h, 10 μg/ml CDDP): 1.571 | Average absorbance SRB ([2]; A375 Run 3, 72 h, 100 μg/ml CDDP): 1.271 | SRB 24 h Average ([3]; 22Rv1 Run 1, 0.1 μg/ml CDDP): 1.847 | SRB 48 h Average ([3]; 22Rv1 Run 1, 0.1 μg/ml CDDP): 1.685 | SRB 72 h Average ([3]; 22Rv1 Run 1, 0.1 μg/ml CDDP): 2.018 | SRB 24 h Average ([3]; 22Rv1 Run 1, 1 μg/ml CDDP): 1.943 | SRB 48 h Average ([3]; 22Rv1 Run 1, 1 μg/ml CDDP): 1.549 | SRB 72 h Average ([3]; 22Rv1 Run 1, 1 μg/ml CDDP): 1.56 | SRB 24 h Average ([3]; 22Rv1 Run 1, 10 μg/ml CDDP): 1.744 | SRB 48 h Average ([3]; 22Rv1 Run 1, 10 μg/ml CDDP): 1.217 | SRB 72 h Average ([3]; 22Rv1 Run 1, 10 μg/ml CDDP): 1.141 | SRB 24 h Average ([3]; 22Rv1 Run 1, 100 μg/ml CDDP): 1.878 | SRB 48 h Average ([3]; 22Rv1 Run 1, 100 μg/ml CDDP): 1.121 | SRB 72 h Average ([3]; 22Rv1 Run 1, 100 μg/ml CDDP): 1.204 | SRB 24 h Average ([3]; 22Rv1 Run 2, 0.1 μg/ml CDDP): 1.727 | SRB 48 h Average ([3]; 22Rv1 Run 2, 0.1 μg/ml CDDP): 2.139 | SRB 72 h Average ([3]; 22Rv1 Run 2, 0.1 μg/ml CDDP): 2.392 | SRB 24 h Average ([3]; 22Rv1 Run 2, 1 μg/ml CDDP): 1.647 | SRB 48 h Average ([3]; 22Rv1 Run 2, 1 μg/ml CDDP): 1.824 | SRB 72 h Average ([3]; 22Rv1 Run 2, 1 μg/ml CDDP): 1.395 | SRB 24 h Average ([3]; 22Rv1 Run 2, 10 μg/ml CDDP): 1.49 | SRB 48 h Average ([3]; 22Rv1 Run 2, 10 μg/ml CDDP): 1.46 | SRB 72 h Average ([3]; 22Rv1 Run 2, 10 μg/ml CDDP): 1.606 | SRB 24 h Average ([3]; 22Rv1 Run 2, 100 μg/ml CDDP): 1.495 | SRB 48 h Average ([3]; 22Rv1 Run 2, 100 μg/ml CDDP): 1.621 | SRB 72 h Average ([3]; 22Rv1 Run 2, 100 μg/ml CDDP): 1.247 | Average absorbance, SRB 24 h ([3]; 22Rv1 Run 3, 0.1 μg/ml CDDP): 1.352 and 0.85
